These results are taken from US20230235084A1, “COMPOSITIONS AND METHODS FOR TARGETED PROTEIN STABILIZATION BY REDIRECTING ENDOGENOUS DEUBIQUITINASES” (THE TRUSTEES OF COLUMBIA UNIVERSITY IN THE CITY OF NEW YORK, priority 2020, published 2023).

For one assay, the system named is KCNQ1. In words: Whole-cell patch clamp of KCNQ1 currents in CHO cells. Type of assay: cell-based, human. Background: In patch-clamp work, channel activity is measured electrically.
Assay [1] concerns CFTR. In words: Whole-cell patch clamp of CFTR currents in HEK293 cells. The class given is cell-based, human. From the text:
A critical next step was to determine whether enDUB-U21-rescued mutant CFTR channels are functional. We focused on N1303K and 4326delTC to represent Class II and Class VI mutations, respectively. HEK293 cells expressing WT CFTR display robust forskolin-activated chloride currents that are blocked by CFTR inhibitor (FIGS. 3C and 3D), and not observed in untransfected cells (FIG. 3E). By contrast, cells expressing either N1303K or 4326delTC alone yielded no forskolin-induced currents (FIGS. 3F and 3G) consistent with their limited surface trafficking and status as disease-causing mutants.
For CFTR channel measurements, whole-cell recordings were carried out in HEK293 and FRT cells at room temperature. Internal solution contained (mM): 113 L-aspartic acid, 113 CsOH, 27 CsCl, 1 NaCl, 1 MgCl2, 1 EGTA, 10 TES, 3 MgATP (pH 7.2). External contained (in mM): 145 NaCl, 4 CsCl, 1 CaCl2, 1 MgCl2, 10 glucose, and 10 TES (pH 7.4). I-V curves were generated from a family of step depolarizations (-80 to +80 mV in 20 mV steps from a holding potential of -40 mV). CFTR currents were activated by perfusion with 10 µM forskolin. In experiments utilizing lumacaftor (3 µM), the drug was added for 24 hrs posttransfection and incubated at 37° C. Ivacaftor was used acutely at 5 µM concentration. Currents were sampled at 20 kHz and filtered at 7 kHz. Traces were acquired at a repetition interval of 10 s.

The next assay concerns BBS-CFTR-YFP. In words: Flow cytometry assay of CFTR surface density in HEK293 cells. The class given is cell-based, human. From the text: BBS-tagged YFP-CFTR was engineered to enable simultaneous assessment of total channel expression and surface density using flow cytometry, and probed the impact of six distinct mutations previously categorized as Class II (F508del, R560T, N1303K) or Class VI (Q1412X, 4279insA, 4326delTC) mutations, respectively (FIG. 3A). All six mutations markedly impaired channel surface density compared to WT CFTR (FIG. 3B, black bars). […] We utilized a second enDUB (enDUB-U21) that comprises the catalytic component of ubiquitin-specific protease USP21 (FIG. 3A), which removes all ubiquitin linkage types (Faesen et al. 2011).
Cell surface and total ion channel pools were assayed by flow cytometry in live, transfected HEK293 cells as previously described (Kanner et al. 2017; Kanner et al. 2018). Briefly, 48 hrs post-transfection, cells cultured in 12-well plates gently washed with ice cold PBS containing Ca^2+ and Mg^2+ (in mM: 0.9 CaCl2, 0.49 MgCl2, pH 7.4), and then incubated for 30 min in blocking medium (DMEM with 3% BSA) at 4° C. HEK293 cells were then incubated with 1 µM Alexa Fluor 647 conjugated α-bungarotoxin (BTX647; Life Technologies) in DMEM/3% BSA on a rocker at 4° C. for 1 hr, followed by washing three times with PBS (containing Ca^2+ and Mg^2+ ). […]
(Flow cytometry measures light scatter and fluorescence of single cells or particles in a stream.)

The subject of assay [2] is CFTR. In words: YFP halide quenching assay in HEK293 cells. Type of assay: cell-based, human. The note with it: HEK293, pilot screen of nanobodies. From the text:
(§1) While GFP-targeted enDUBs provided critical proof-of-concept efficacy for the targeted deubiquitination approach in rescuing different trafficking-deficient recombinant mutant channels, a key next step was to develop nanobodies towards CFTR itself to enable targeting of endogenous channels. Accordingly, we used purified CFTR NBD1 domain (FIG. 4A) as bait to identify binders using a yeast nanobody library surface display approach (McMahon et al. 2018) (FIG. 4B). After several rounds of magnetic-activated cell sorting (MACS) and fluorescence-activated cell sorting (FACS) selection we isolated 14 unique nanobody binders with a range of affinities for NBD1 as reported by an on-yeast binding assay (FIG. 12A; Table 1). […] Binding of nb.E3h to full-length CFTR in cells was confirmed by a flow cytometric fluorescence resonance energy transfer (flow-FRET) assay (FIG. 4C).
A YFP halide quenching plate-reader assay was adapted from previous work (Galietta et al. 2001). […] Baseline YFP readings (Ex: 510 nm, Em: 538 nm) were taken using a SpectraMax M5 plate-reader (Molecular Devices). An equal amount of 2× activation solution, containing iodide, was added to obtain a final concentration (70 mM Nal, 10 µM forskolin, 5 µM VX770), and a time series recording YFP fluorescence was taken every 2 s. […]
Target sequence in this assay (P13569 387-646 limits assumed): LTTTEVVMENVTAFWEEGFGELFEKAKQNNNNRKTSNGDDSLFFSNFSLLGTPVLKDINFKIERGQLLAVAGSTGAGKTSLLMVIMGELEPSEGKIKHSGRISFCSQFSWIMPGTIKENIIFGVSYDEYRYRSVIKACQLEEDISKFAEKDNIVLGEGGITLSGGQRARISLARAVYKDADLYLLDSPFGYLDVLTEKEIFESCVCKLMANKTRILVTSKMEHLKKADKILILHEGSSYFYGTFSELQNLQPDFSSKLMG

For a further assay, the target named is T1, full-length CFTR (Homo sapiens, UniProt P13569).
T1 construct: expressed in transfected cells; host or cells: HEK293
T1 sequence (P13569 whole entry): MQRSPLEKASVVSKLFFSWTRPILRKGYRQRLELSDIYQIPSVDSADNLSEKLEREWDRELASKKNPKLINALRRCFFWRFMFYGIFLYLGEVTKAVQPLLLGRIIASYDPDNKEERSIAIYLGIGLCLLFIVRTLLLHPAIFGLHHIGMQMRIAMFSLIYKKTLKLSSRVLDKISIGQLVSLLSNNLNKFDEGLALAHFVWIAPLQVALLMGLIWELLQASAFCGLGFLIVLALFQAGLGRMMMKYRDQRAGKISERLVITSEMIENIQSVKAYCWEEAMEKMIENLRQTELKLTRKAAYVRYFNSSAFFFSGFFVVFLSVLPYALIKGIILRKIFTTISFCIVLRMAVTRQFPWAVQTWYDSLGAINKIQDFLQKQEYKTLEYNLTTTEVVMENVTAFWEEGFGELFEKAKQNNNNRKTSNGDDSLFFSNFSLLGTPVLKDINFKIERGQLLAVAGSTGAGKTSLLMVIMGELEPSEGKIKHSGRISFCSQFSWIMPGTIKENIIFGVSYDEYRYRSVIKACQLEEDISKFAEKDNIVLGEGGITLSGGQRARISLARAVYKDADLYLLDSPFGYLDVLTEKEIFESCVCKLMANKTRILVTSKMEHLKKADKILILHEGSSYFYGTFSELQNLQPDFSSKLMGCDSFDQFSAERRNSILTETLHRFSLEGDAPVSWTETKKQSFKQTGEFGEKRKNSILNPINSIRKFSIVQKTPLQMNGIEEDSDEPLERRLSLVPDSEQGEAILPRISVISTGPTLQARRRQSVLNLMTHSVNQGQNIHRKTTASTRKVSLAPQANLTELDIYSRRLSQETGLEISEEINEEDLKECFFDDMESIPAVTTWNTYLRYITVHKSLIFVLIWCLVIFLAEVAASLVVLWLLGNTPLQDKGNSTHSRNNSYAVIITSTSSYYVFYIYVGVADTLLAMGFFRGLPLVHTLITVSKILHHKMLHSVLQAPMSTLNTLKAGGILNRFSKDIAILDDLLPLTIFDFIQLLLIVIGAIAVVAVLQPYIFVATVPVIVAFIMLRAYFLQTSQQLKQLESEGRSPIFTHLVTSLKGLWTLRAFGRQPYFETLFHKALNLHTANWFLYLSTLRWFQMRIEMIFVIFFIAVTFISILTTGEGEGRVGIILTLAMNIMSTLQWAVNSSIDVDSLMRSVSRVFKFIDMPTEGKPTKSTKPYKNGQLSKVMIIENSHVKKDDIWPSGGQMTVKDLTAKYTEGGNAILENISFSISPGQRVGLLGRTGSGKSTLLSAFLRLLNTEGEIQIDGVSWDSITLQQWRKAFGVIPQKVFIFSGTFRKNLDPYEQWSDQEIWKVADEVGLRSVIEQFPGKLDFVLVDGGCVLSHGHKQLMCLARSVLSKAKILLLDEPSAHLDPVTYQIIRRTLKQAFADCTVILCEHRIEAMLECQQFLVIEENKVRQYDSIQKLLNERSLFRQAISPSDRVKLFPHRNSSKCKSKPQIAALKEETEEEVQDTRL
In words: Flow cytometric FRET binding assay in HEK293 cells. The settings on record: Cerulean-nanobody donor, Venus-CFTR acceptor.
Description: as §1
FRET binding assays were performed via flow cytometry in live, transfected HEK293 cells as previously described (Lee et al. 2016). […] Cerulean (Cer), Venus (Ven), and FRET signals were analyzed using the following laser / filter set configurations: BV421 (Ex: 405 nm, Em: 450/50), FITC (Ex: 488 nm, Em: 525/50), and BV520 (Ex: 405 nm, Em: 525/50), respectively. […]

Description for KCNQ1: Whole-cell patch clamp electrophysiology was used to determine functionality of enDUB-O1-rescued KCNQ1 channels.
Chinese hamster ovary (CHO) cells were obtained from ATCC and cultured at 37° C. in Kaighn’s Modified Ham’s F-12K (ATCC) supplemented with 8% FBS and 100 mg/mL of penicillin-streptomycin. CHO cells were transiently transfected with desired constructs in 35 mm tissue culture dishes—KCNQ1 (0.5 µg) and nano-P2A-CFP (0.5 µg) or enDUBO1-P2A-CFP (0.5 µg) using X-tremeGENE HP (1:2 DNA/reagent ratio) according to the manufacturers’ instructions (Roche).
For potassium channel measurements, whole-cell membrane currents were recorded at room temperature in CHO cells using an EPC-10 patch-clamp amplifier (HEKA Electronics) controlled by the PatchMaster software (HEKA). A coverslip with adherent CHO cells was placed on the glass bottom of a recording chamber (0.7-1 mL in volume) mounted on the stage of an inverted Nikon Eclipse Ti-U microscope. Micropipettes were fashioned from 1.5 mm thin-walled glass and fire-polished. […] Pipette resistance was typically 1.5 MΩ when filled with internal solution. I-V curves were generated from a family of step depolarizations (-40 to +100 mV in 10 mV steps from a holding potential of -80 mV). Currents were sampled at 20 kHz and filtered at 5 kHz. Traces were acquired at a repetition interval of 10 s.

On to `COc1ccc(-c2csc(NC(=O)[C@H]3CCCCN3S(=O)(=O)c3ccc(C)cc3)n2)cc1` [ML277, (R)-N-(4-(4-methoxyphenyl)thiazol-2-yl)-1-tosylpiperidine-2-carboxamide], for which the “enDUB-O1-rescued R591H current amplitude” value with KCNQ1 (R591H + enDUB-O1, ML277 1 µM) was “markedly increased enDUB-O1-rescued R591H current amplitude to beyond WT KCNQ1 levels”. Also, in the assay with KCNQ1 (R591H + nano, 1 µM), the “R591H KCNQ1 currents” value is on record as “modestly increased R591H currents”.

Take `CC(C)(C)c1cc(C(C)(C)C)c(NC(=O)c2c[nH]c3ccccc3c2=O)cc1O` [ivacaftor]: the “Forskolin-stimulated 4326delTC or N1303K currents after ivacaftor” value in the assay with CFTR [1] (enDUB-U21 co-expression + lumacaftor, ivacaftor 5 µM) is listed as “further enhanced”. For the same molecule, the “Forskolin-induced 4326delTC and N1303K currents after ivacaftor” value with CFTR [1] (nano-expressing HEK293 cells, lumacaftor pre-incubation, ivacaftor 5 µM) is “further elevated”.

Regarding `Cc1ccc(NC(=O)C2(c3ccc4c(c3)OC(F)(F)O4)CC2)nc1-c1cccc(C(=O)O)c1` [lumacaftor], the “F508del and R560T CFTR surface expression” value with BBS-CFTR-YFP (lumacaftor 24 hrs pre-incubation or enDUB co-expression) is “did not increase F508del and R560T surface expression”. Also, the “Surface trafficking of the other four CFTR mutations (N1303K, Q1412X, 4279insA, 4326delTC)” value in the assay with BBS-CFTR-YFP (lumacaftor 24 hrs pre-incubation or enDUB co-expression (enDUB compared to lumacaftor)) is recorded as “improved trafficking of the remaining 4 mutations”. The “Forskolin-induced 4326delTC and N1303K currents” value in the assay on CFTR [1] (nano-expressing HEK293 cells, lumacaftor pre-incubation) was “relatively small”.

B1: nb.E3h: CFTR (NBD1) target nanobody clone, SEQ ID No: 25 (protein)
VHH: QVQLQESGGGLVQAGGSLRLSCAASGTISGSGSMGWYRQAPGKEREFVAAINVGSNTYYADSVKGRFTISRDNAKNTVYLQMNSLKPEDTAVYYCAVRFGYYYRHTYWGQGTQVTVSS
modifications: nanobody
As for B1, the “Performance in halide sensor assay when converted to an enDUB” value with CFTR [2] is given as “superior performance”. The “Binding to full-length CFTR in cells (flow-FRET)” value in the assay with full-length CFTR is reported as “confirmed”. The “Performance in patch clamp assay when converted to an enDUB” value in the assay on CFTR [1] (HEK293) is on record as “superior performance”.
